Reference: the Deep4Chem optical property database
“And” between values parts separate entries of the source, which are not always exact repeats. Identical values can stand only once. Blank lines part the entries; values can stand above or below the compound they belong to.

Test: solvent given as SMILES

Compound: COc1ccc2c(c1)c1cc(OC)ccc1c1c2c2c(C(=O)NC(C)(C)C)ccc(C(=O)NC(C)(C)C)c2c2c3ccc(OC)cc3c3cc(OC)ccc3c21
- fluorescence lifetime (in ClCCl): 0.85 ns

Compound: c1ccc2c(c1)CCc1c-2cnc2c1-c1ccccc1CC2
- fluorescence lifetime (in C1CCOC1): 3.33 ns
- fluorescence lifetime (in CC#N): 3.66 ns
- fluorescence lifetime (in CCCCCC): 3.14 ns
- fluorescence lifetime (in CCOC(C)=O): 3.46 ns
- fluorescence lifetime (in CO): 3.96 ns
- fluorescence lifetime (in CS(C)=O): 3.88 ns
- fluorescence lifetime (in Cc1ccccc1): 3.24 ns
- fluorescence lifetime (in ClCCl): 3.67 ns

Compound: CCC1(CC)c2cc(B(c3c(C)cc(C)cc3C)c3c(C)cc(C)cc3C)ccc2-c2c1c1c(c3c2C(CC)(CC)c2cc(N(c4ccccc4)c4ccccc4)ccc2-3)C(CC)(CC)c2cc(B(c3c(C)cc(C)cc3C)c3c(C)cc(C)cc3C)ccc2-1
- fluorescence lifetime (in C1CCOC1): 18.1 ns

Compound: CCOC(=O)CN1C(=O)C2=C(c3ccc(C#N)cc3)N(CC(=O)OCC)C(=O)C2=C1c1ccc(C#N)cc1
- fluorescence lifetime (in CC#N): 6.67 ns
- fluorescence lifetime (in CS(C)=O): 6.5 ns
- fluorescence lifetime (in Cc1ccccc1): 6.48 ns

Compound: [NH3+]C1(c2ccc3cc(O)ccc3c2)C2CC3CC(C2)CC1C3 (stereo not given)
- fluorescence lifetime (in CC#N): 10.3 ns

Compound: ClP1(Cl)=NP(Cl)(Cl)=NP(Cl)(Oc2ccc3ccc4cccc5ccc2c3c45)=N1 (stereo not given)
- fluorescence lifetime (in ClCCl): 3.29 ns

Compound: CCCCCCCCCCCCCCCCCCN1C(=O)c2ccc3c4ccc5c6c(ccc(c7ccc(c2c37)C1=O)c64)C(=O)NC5=O
- fluorescence lifetime (in CN(C)C=O): 3 ns

Compound: CC(C)(C)c1ccc2c(c1)-c1c3c(c4c5c1-c1cc(C(C)(C)C)ccc1OB5Oc1ccc(C(C)(C)C)cc1-4)-c1cc(C(C)(C)C)ccc1OB3O2
- fluorescence lifetime (in ClCCl): 3.96 ns

Compound: CCCCCCN(CCCCCC)c1ccc(C#Cc2ccc(-c3ccc(C#Cc4ccc(N(CCCCCC)CCCCCC)cc4)cc3)cc2)cc1
- fluorescence lifetime (in Cc1ccccc1): 1 ns

Compound: Cc1cc2nc3[nH]c(=O)[nH]c(=O)c3nc2cc1C
- fluorescence lifetime (in CC#N): 0.64 ns

Compound: Cc1cc(C)c(-c2c3ccccc3c3ccc4cc5c(-c6c(C)cc(C)cc6C)c6ccccc6c6ccc7cc2c3c4c7c56)c(C)c1
- fluorescence lifetime (in ClCCl): 11.5 ns

Compound: COc1ccc(-c2oc3cccc4c5c(-c6ccc(OC)cc6)c(=N)oc6cccc(c2c34)c65)cc1
- fluorescence lifetime (in ClC(Cl)Cl): 1.5 ns

Compound: COc1ccc(C2=C(c3ccc(-c4ccccc4)cc3)C(c3ccccc3)=[N+]3C2=Nc2c(-c4ccc(OC)cc4)c(-c4ccc(-c5ccccc5)cc4)c(-c4ccccc4)n2[B-]3(F)F)cc1
- fluorescence lifetime (in Cc1ccccc1): 0.14 ns

Compound: Cc1ccc(-c2ccc(/C=C/c3cccn3C)cn2)nc1
- fluorescence lifetime (in C1COCCO1): 0.59 ns
- fluorescence lifetime (in CC#N): 0.51 ns
- fluorescence lifetime (in CCCCCC): 0.86 ns
- fluorescence lifetime (in CCO): 0.92 ns
- fluorescence lifetime (in CN(C)C=O): 0.65 ns
- fluorescence lifetime (in CO): 1 ns
- fluorescence lifetime (in CS(C)=O): 0.64 ns
- fluorescence lifetime (in Cc1ccccc1): 0.56 ns
- fluorescence lifetime (in ClC(Cl)Cl): 0.62 ns
- fluorescence lifetime (in c1ccccc1): 0.51 ns

Compound: O=c1cc(C(F)(F)F)c2cc3c4c(c2o1)CCCN4CCC3
- fluorescence lifetime (in C1CCCCC1): 4.3 ns
- fluorescence lifetime (in CC#N): 5.6 ns
- fluorescence lifetime (in CCC#N): 6.55 ns
- fluorescence lifetime (in CCCCCCCl): 5.72 ns
- fluorescence lifetime (in CCCCl): 5.78 ns
- fluorescence lifetime (in CCO): 3.4 ns and 4.56 ns
- fluorescence lifetime (in CCOC(C)=O): 5.4 ns
- fluorescence lifetime (in OCC(F)(F)F): 3.97 ns
- fluorescence lifetime (in OCC(O)CO): 3.5 ns

Compound: CC1(C)c2ccccc2N(c2ccc(-c3nc(-c4ccccc4)cc(-c4ccccc4)n3)cc2)c2ccccc21
- fluorescence lifetime (in Cc1ccccc1): 6.48 ns
- fluorescence lifetime (in ClCCl): 18.2 ns

Compound: N#Cc1ccc(/C=C/c2ccc(C=C(c3ccccc3)c3ccccc3)cc2)cc1
- fluorescence lifetime (in C1CCOC1): 0.5 ns

Compound: CC(C)[Si](C#Cc1c2ccccc2c(C#C[Si](C(C)C)(C(C)C)C(C)C)c2nc3cc4c(cc3nc12)C1c2ccccc2C4c2ccccc21)(C(C)C)C(C)C
- fluorescence lifetime (in CCCCCC): 13.3 ns
- fluorescence lifetime (in ClCCl): 18.3 ns

Compound: CC(C)(C)c1ccc2c(c1)c1cc(C(C)(C)C)ccc1n2-c1ccc(-c2ccc3c(c2)C(=O)c2ccc(-c4ccc(-n5c6ccc(C(C)(C)C)cc6c6cc(C(C)(C)C)ccc65)cc4)cc2C3=O)cc1
- fluorescence lifetime (in Cc1ccccc1): 12.6 ns
- fluorescence lifetime (in c1ccc2c(c1)c1ccccc1n2-c1ccc(-c2ccc(-n3c4ccccc4c4ccccc43)cc2)cc1): 33 ns

Compound: c1cc(N2CCCC2)ccn1
- fluorescence lifetime (in CC1CCCCC1): 11 ns

Compound: C1=Cc2nc1c(-c1cccs1)c1ccc([nH]1)c(-c1cccs1)c1nc(c(-c3cccs3)c3ccc([nH]3)c2-c2cccs2)C=C1
- fluorescence lifetime (in CN(C)C=O): 2.09 ns
- fluorescence lifetime (in ClCCl): 9.27 ns

Compound: Fc1nc(F)c(F)c(/C=C2/C(c3c(F)c(F)nc(F)c3F)=Cc3ccccc32)c1F
- fluorescence lifetime (in CC#N): 0.3 ns

Compound: c1ccc(/C(=C(\c2ccccc2)c2cc(-c3ccccc3)ccc2-c2ccc(-c3ccccc3)cc2)c2cc(-c3ccccc3)ccc2-c2ccc(-c3ccccc3)cc2)cc1
- fluorescence lifetime (in C1CCOC1): 7.9 ns

Compound: c1ccc(C2=C(c3ccccc3)[Si](c3ccccc3)(c3ccccc3)c3ccccc32)cc1
- fluorescence lifetime (in C1CCOC1): 1.98 ns

Further lines, results first:

- fluorescence lifetime (in O): 3 ns
Compound: CCOC(=O)c1c(CSc2ccccc2)n(C)c2cc(Br)c(O)c(CN(C)C)c12

- fluorescence lifetime (in ClCCl): 0.45 ns
Compound: O=[N+]([O-])c1ccc(O)c(-c2nc3c(c4c2-c2ccccc2CC4)-c2ccccc2CC3)c1

- fluorescence lifetime (in C1CCOC1): 2.1 ns
Compound: CCOC(=O)c1csc2[n+]1[B-](F)(F)OC(c1ccc(N(C)C)cc1)=N2

- fluorescence lifetime (in C1CCOC1): 0.33 ns
- fluorescence lifetime (in CC#N): 0.41 ns
- fluorescence lifetime (in CCO): 0.28 ns
- fluorescence lifetime (in CN(C)C=O): 0.19 ns
- fluorescence lifetime (in CO): 0.22 ns
- fluorescence lifetime (in CS(C)=O): 0.13 ns
Compound: CSc1sc(C(=O)c2ccccc2)c2nn[nH]c(=O)c12

- fluorescence lifetime (in ClCCl): 7.3 ns
Compound: OCCSc1cccc2[n+]1[B-](F)(F)n1c(c3cccc4cccc1c43)=N2

- fluorescence lifetime (in ClCCl): 1.14 ns
Compound: CCCCC(CC)COc1ccc2nc(-c3ccc(-c4ccccc4)s3)sc2c1 (stereo not given)

- fluorescence lifetime (in CC#N): 5 ns
Compound: COc1ccc(-n2c(C)ccc2C)cc1

- fluorescence lifetime (in CC#N): 4.03 ns
- fluorescence lifetime (in CCO): 4 ns
- fluorescence lifetime (in CN(C)C=O): 3.68 ns
- fluorescence lifetime (in O): 4.28 ns
Compound: Nc1ccc2c(-c3ccccc3C(=O)[O-])c3ccc(=[NH2+])cc-3oc2c1

- fluorescence lifetime (in C1CCCCC1): 1.8 ns
- fluorescence lifetime (in CC#N): 15.7 ns
- fluorescence lifetime (in CCO): 0.8 ns
Compound: COc1ccc2c(c1)-c1cc(OC)ccc1C2=O

- fluorescence lifetime (in CO): 0.41 ns
- fluorescence lifetime (in ClC(Cl)Cl): 2.44 ns
Compound: CC[n+]1c(C=C2C(=O)C(C=C3N(C)c4ccccc4C3(C)C)=C2[O-])[se]c2ccccc21
